The record followed here is the supplement of paper PMC11127212.

A short description of data set [1]: retention time on BEH HILIC column (20 min gradient, 0.4 mL/min); higher = later elution. Particulars: LC: HILIC. On the procedure:
(§1)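 Reference standards (20-100 uM) were separated by HILIC UPLC (BEH HILIC, 45 °C): acidic pH 3.0 ammonium formate/formic acid for ESI+ and basic pH 9.0 ammonium acetate/ammonia for ESI-. They were analysed on a Synapt G2-Si traveling-wave IMS-QTOF with nitrogen drift gas (WH 30 V; WV 800 m/s in ESI+ and 1000 m/s in ESI-).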

The nature of data set [2]: collision cross section (TWIMS, N2) of ion [M+Na-2H]-; higher = larger gas-phase ion cross section. Particulars: ionization: ESI negative; LC: HILIC, pH 9.0 ammonium acetate. The method, then: (§2)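 Reference standards (20-100 uM) were separated by HILIC UPLC (BEH HILIC, 45 °C): acidic pH 3.0 ammonium formate/formic acid for ESI+ and basic pH 9.0 ammonium acetate/ammonia for ESI-. They were analysed on a Synapt G2-Si traveling-wave IMS-QTOF with nitrogen drift gas (WH 30 V; WV 800 m/s in ESI+ and 1000 m/s in ESI-). CCS (TWCCSN2, Å2) was calibrated with Major Mix IMS/TOF and LockCCS leucine enkephalin; inter-day RSD was <1%.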

Data set [3] can be described thus: collision cross section (TWIMS, N2) of ion [M+Na]+; higher = larger gas-phase ion cross section. Particulars: ionization: ESI positive; LC: HILIC, pH 3.0 ammonium formate. Summed up:
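Standards were separated on a BEH HILIC column with an acetonitrile/water gradient buffered with ammonium formate and formic acid, then ionized by positive electrospray and measured on a Synapt G2-Si traveling-wave ion mobility QTOF in nitrogen. Nitrogen collision cross section was calibrated using Major Mix IMS/TOF solution and corrected in real time against leucine enkephalin.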

Data set [4] is described as follows: collision cross section (TWIMS, N2) of ion [M-H]-; higher = larger gas-phase ion cross section. Particulars: ionization: ESI negative; LC: HILIC, pH 9.0 ammonium acetate. The method, then:
as §1

Data set [5] in a line: collision cross section (TWIMS, N2) of ion [M+H-H2O]+; higher = larger gas-phase ion cross section. The conditions noted are these: ionization: ESI positive; LC: HILIC, pH 3.0 ammonium formate. The method, then:
as §2

A short description of data set [6]: collision cross section (TWIMS, N2) of ion [M+H]+; higher = larger gas-phase ion cross section. Particulars: ionization: ESI positive; LC: HILIC, pH 3.0 ammonium formate. On the procedure: as §1
Data set [7] can be described thus: collision cross section (TWIMS, N2) of ion [M]+; higher = larger gas-phase ion cross section. The conditions noted are these: ionization: ESI positive; LC: HILIC, pH 3.0 ammonium formate. On the procedure: as §2
Where [8] appears, read: ionization: ESI negative, pH 9.0 ammonium acetate.
Setting [9] is: ionization: ESI positive, pH 3.0 ammonium formate.

Regarding `O=C(O)c1ccc(C(=O)O)o1` [2,5-furandicarboxylic acid], the “retention time on BEH HILIC column” value in data set [1] (setting [8]) was determined as 7.28 min. For the same compound, in data set [2], the collision cross section is listed as 129.41 Å².
In the case of `O=C(O)Cc1cccc(O)c1` [3-hydroxyphenylacetic acid], the “retention time on BEH HILIC column” value in data set [1] (setting [8]) and in data set [1] (setting [9]) was 0.99 min in each case. Moreover, the collision cross section in data set [3] is recorded as 139.98 Å²; in data set [2], 132.19 Å².
As to `C[C@@H](CCC(=O)O)CC(=O)O` [3-methyladipic acid], the entries for the “retention time on BEH HILIC column” value in data set [1] (setting [8]) and in data set [1] (setting [9]) were 0.93 min and 1.05 min, respectively. The collision cross section was 131.84 Å² in data set [4], 136.22 Å² in data set [3] and 135.93 Å² in data set [2].
As for `C/C(=C\C(=O)O)CC(=O)O` [3-methylglutaconic acid], the “retention time on BEH HILIC column” value in data set [1] (setting [8]) was 1.75 min; in data set [1] (setting [9]) it was 1.45 min. Further, the collision cross section in data set [3] is 132.11 Å²; in data set [2], 131.48 Å².
As for `Nc1ccccc1C(=O)C[C@H](N)C(=O)O` [L-kynurenine], the collision cross section in data set [5] was determined as 140.8 Å²; in data set [6], 146.07 Å²; in data set [3], 149.75 Å². Moreover, the “retention time on BEH HILIC column” value in data set [1] (setting [9]) turned out to be 5.74 min.
Consider `CCCCCCCC/C=C\CCCCCCCC(=O)O` [Oleic acid], for which the “retention time on BEH HILIC column” value in data set [1] (setting [8]) was determined as 0.75 min; in data set [1] (setting [9]), 0.73 min. Further, the collision cross section was found to be 179.19 Å² in data set [4], 181.57 Å² in data set [3] and 184.54 Å² in data set [2].
Turning to `CC(C)(CO)[C@@H](O)C(=O)NCCC(=O)O` [Pantothenic acid], the collision cross section in data set [5] stood at 144.55 Å²; in data set [6] it was 145.63 Å²; in data set [4], 146.44 Å²; in data set [3], 150.01 Å². In addition, the “retention time on BEH HILIC column” value in data set [1] (setting [8]) was determined as 2.08 min; in data set [1] (setting [9]) it was 1.96 min.
For `Cc1ncc(C[n+]2csc(CCO)c2C)c(N)n1` [Thiamine], the collision cross section in data set [7] is listed as 162.11 Å²; in data set [4], 164.85 Å². Further, the “retention time on BEH HILIC column” value in data set [1] (setting [8]) was determined as 8.94 min; in data set [1] (setting [9]), 8.96 min.
For the compound `Cc1c[nH]c(=O)[nH]c1=O` [Thymine], the collision cross section in data set [5] turned out to be 122.06 Å²; in data set [6] it was 120.81 Å²; in data set [4], 120.89 Å². In addition, the “retention time on BEH HILIC column” value is 1.03 min in data set [1] (setting [8]) and 1.05 min in data set [1] (setting [9]).
Regarding `O=c1cc[nH]c(=O)[nH]1` [Uracil], the collision cross section in data set [5] was 120.58 Å²; in data set [6] it was 120.27 Å²; in data set [4], 115.77 Å². The “retention time on BEH HILIC column” value in data set [1] (setting [8]) and in data set [1] (setting [9]) was 1.08 min each time.
Consider `Cc1cccc(O)c1` [m-cresol], for which the results for the collision cross section in data set [5], in data set [6] and in data set [4] were 123.87 Å², 126.19 Å² and 122.73 Å², respectively. Also, the “retention time on BEH HILIC column” value in data set [1] (setting [8]) was determined as 0.75 min; in data set [1] (setting [9]), 0.77 min.
